Results reported in BindingDB's records for doi:10.1002/(SICI)1098-2396(200002)35:2<79::AID-SYN1>3.0.CO;2-X (Institut De Recherches Servier, 2000).

Assays:
D(3) dopamine receptor = D(3) dopamine receptor (Homo sapiens, UniProt P35462)
[1] = molecular target: T1, 5-hydroxytryptamine receptor 1A (Rattus norvegicus, UniProt P19327)
T1 sequence (P19327 whole entry): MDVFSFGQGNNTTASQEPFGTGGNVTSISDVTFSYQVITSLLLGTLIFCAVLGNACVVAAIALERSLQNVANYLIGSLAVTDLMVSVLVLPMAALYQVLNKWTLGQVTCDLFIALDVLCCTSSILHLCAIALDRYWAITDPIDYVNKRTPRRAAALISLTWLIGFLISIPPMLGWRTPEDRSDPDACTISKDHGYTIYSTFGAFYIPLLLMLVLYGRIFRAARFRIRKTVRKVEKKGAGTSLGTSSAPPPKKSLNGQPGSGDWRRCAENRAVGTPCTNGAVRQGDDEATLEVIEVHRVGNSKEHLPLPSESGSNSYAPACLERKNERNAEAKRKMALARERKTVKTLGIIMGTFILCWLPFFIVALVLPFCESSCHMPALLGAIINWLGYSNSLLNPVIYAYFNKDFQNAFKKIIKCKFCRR

D(2) dopamine receptor = D(2) dopamine receptor (Rattus norvegicus, UniProt P61169)
Sequence of D(2) dopamine receptor (P61169 whole entry): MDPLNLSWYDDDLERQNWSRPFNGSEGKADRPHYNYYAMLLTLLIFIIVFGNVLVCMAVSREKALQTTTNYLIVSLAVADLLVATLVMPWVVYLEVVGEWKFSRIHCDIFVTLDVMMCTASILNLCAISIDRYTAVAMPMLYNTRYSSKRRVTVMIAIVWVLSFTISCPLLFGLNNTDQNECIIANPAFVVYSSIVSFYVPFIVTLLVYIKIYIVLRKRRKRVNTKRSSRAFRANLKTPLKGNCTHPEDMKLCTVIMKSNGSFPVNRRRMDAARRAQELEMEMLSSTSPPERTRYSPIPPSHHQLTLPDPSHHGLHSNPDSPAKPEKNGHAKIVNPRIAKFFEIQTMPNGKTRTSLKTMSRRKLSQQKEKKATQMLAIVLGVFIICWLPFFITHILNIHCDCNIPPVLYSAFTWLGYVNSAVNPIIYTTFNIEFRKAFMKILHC

[2] = molecular target: T2, Alpha-1A adrenergic receptor (Homo sapiens, UniProt P35348)
T2 sequence (P35348 whole entry): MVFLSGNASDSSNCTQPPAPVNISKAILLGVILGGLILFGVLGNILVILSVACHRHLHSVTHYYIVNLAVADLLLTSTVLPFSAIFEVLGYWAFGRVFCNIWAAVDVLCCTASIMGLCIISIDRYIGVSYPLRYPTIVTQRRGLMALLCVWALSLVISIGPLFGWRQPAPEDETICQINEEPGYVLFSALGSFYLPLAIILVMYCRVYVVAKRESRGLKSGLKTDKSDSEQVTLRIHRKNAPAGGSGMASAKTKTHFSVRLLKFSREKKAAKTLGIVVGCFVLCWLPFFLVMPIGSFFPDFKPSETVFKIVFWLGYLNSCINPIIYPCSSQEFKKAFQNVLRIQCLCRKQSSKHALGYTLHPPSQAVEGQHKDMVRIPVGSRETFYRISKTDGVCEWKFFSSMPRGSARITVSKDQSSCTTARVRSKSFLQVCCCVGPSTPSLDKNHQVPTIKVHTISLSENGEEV

[3] = molecular target: T3, Alpha-2C adrenergic receptor (Homo sapiens, UniProt P18825)
T3 sequence (P18825 whole entry): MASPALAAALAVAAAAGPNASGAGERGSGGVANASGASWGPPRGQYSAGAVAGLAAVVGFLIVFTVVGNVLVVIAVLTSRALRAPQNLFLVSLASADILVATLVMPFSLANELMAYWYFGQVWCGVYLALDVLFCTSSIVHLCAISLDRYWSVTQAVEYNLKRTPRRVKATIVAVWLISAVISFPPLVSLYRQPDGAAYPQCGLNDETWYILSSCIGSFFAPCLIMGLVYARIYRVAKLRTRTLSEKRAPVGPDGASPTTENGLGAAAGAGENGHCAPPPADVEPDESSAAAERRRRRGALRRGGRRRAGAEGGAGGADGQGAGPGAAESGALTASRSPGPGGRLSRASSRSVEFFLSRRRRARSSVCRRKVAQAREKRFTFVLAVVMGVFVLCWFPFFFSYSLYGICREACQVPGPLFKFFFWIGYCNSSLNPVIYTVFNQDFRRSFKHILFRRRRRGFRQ

[4] = molecular target: T4, Alpha-1B adrenergic receptor (Homo sapiens, UniProt P35368)
T4 sequence (P35368 whole entry): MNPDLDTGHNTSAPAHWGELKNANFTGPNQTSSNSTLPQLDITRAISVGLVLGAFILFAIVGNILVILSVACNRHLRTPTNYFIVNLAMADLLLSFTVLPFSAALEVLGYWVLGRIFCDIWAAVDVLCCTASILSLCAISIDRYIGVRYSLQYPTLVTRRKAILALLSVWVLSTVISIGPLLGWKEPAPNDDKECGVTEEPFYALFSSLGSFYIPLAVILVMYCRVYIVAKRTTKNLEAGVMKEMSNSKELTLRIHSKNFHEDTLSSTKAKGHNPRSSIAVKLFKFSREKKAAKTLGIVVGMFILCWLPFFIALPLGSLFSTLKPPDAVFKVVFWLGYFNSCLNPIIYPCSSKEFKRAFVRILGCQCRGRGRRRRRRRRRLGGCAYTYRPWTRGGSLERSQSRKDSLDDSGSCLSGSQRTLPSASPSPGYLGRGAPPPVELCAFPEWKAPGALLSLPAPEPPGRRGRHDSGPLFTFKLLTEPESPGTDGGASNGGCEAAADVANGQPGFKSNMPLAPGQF

[5] = molecular target: T5, 5-hydroxytryptamine receptor 2C (Homo sapiens, UniProt P28335)
T5 sequence (P28335 whole entry): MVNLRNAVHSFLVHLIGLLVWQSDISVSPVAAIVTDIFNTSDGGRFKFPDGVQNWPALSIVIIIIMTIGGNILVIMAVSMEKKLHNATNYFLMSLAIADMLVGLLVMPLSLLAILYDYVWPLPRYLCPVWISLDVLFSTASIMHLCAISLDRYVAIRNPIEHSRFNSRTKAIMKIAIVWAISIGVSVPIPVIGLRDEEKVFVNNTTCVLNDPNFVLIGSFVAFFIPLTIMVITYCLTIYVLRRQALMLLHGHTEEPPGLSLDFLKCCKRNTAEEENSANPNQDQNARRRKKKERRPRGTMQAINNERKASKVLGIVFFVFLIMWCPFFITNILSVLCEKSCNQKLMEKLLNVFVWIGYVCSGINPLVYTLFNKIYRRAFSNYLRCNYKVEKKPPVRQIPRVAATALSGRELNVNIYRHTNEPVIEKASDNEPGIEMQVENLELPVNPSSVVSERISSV

Sequence of D(3) dopamine receptor (P35462 as listed by the source): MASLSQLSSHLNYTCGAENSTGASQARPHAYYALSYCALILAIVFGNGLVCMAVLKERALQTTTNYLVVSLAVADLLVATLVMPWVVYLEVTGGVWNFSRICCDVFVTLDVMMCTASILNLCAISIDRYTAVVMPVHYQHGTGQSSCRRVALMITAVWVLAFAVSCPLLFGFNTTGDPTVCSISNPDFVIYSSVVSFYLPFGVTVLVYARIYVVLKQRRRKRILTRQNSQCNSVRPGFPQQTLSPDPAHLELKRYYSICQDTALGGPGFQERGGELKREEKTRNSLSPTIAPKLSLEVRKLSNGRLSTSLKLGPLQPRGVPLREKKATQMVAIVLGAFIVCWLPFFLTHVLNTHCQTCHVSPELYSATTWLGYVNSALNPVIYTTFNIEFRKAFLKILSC

Fc1cccc2c1OC1CNCC1O2 (configuration not stated) [CAS_105182-45-4]
Ki (D(3) dopamine receptor): 1000 nM
Ki [1]: 631 nM
Ki (D(2) dopamine receptor): 3.16 µM
Ki [2]: 501 nM
Ki [3]: 1.58 nM
Ki [4]: 1000 nM
Ki [5]: 1000 nM
